Experimental data: patent US20080058330A1, “Compounds and Combinations Thereof for Inhibiting Beta-Amyloid Production and Methods of Use Thereof” (Roskamp Research LLC, priority 2006, published 2008)

Key:
7W WT APP751 CHO cells [1] = test: Screening of NF-kB activation inhibitors, Aβ1-40 and Aβ1-42 ELISA (Example 3); type: cell-based, Chinese hamster; conditions: 24 hours (FIG. 6)
Protocol: Each compound was dissolved in DMSO. 7W WT APP751 CHO cells overexpressing APP751 were plated into 96-well culture plates in 200 μL of culture medium. Each compound from the library was added to confluent cells to a final concentration of 500 nM, 1 μM, 5 μM, 10 μM and/or 30 μM. After 24 hours of treatment, culture medium was collected and dissolved 10-fold and 2-fold for measuring the level of Aβ1-40 and Aβ1-42, respectively. Aβ1-40 and Aβ1-42 were determined using commercially available ELISAs (Biosource, CA), following the recommendations of the manufacturer.

7W WT APP751 CHO cells [2] = test: Screening of dihydropyridine compounds (Maybridge), Aβ1-40 and Aβ1-42 ELISA (Example 2); type: cell-based, Chinese hamster; conditions: 30 μM, 24 hours (FIG. 5A, 5B)
Protocol: Dihydropyridine compounds were obtained from Maybridge (England). Each compound was dissolved in DMSO. 7W WT APP751 CHO cells overexpressing APP751 were plated into 96-well culture plates in 200 μL of culture medium. Each compound from the library was added to confluent cells to a final concentration of 30 μM. After 24 hours of treatment, culture medium was collected and dissolved 10-fold and 2-fold for measuring the level of Aβ1-40 and Aβ1-42, respectively. Aβ1-40 and Aβ1-42 were determined using commercially available ELISAs (Biosource, CA), following the recommendations of the manufacturer.

Nc1ccc2ncnc(NCCc3ccc(Oc4ccccc4)cc3)c2c1 [6-amino-4-(4-phenoxyphenylethylamino)quinazoline]
significantly decreased: concentration of Aβ1-40 compared to controls (7W WT APP751 CHO cells [1]; 500 nM) | concentration of Aβ1-42 compared to controls (7W WT APP751 CHO cells [1]; 500 nM) | concentration of total β-amyloid compared to controls (7W WT APP751 CHO cells [1]; 500 nM) | concentration of Aβ1-40 compared to controls (7W WT APP751 CHO cells [1]; 5 μM) | concentration of Aβ1-42 compared to controls (7W WT APP751 CHO cells [1]; 5 μM) | concentration of total β-amyloid compared to controls (7W WT APP751 CHO cells [1]; 5 μM)

COC(=O)C1=C(C)NC(C)=C(C(=O)OCCCN2CCC(c3ccccc3)(c3ccccc3)CC2)[C@H]1c1cccc([N+](=O)[O-])c1.Cl [(S)-(+)-niguldipine]
significantly decreased: concentration of Aβ1-40 compared to controls (7W WT APP751 CHO cells [1]; 1 μM) | concentration of Aβ1-42 compared to controls (7W WT APP751 CHO cells [1]; 1 μM) | concentration of total β-amyloid compared to controls (7W WT APP751 CHO cells [1]; 1 μM) | concentration of Aβ1-40 compared to controls (7W WT APP751 CHO cells [1]; 5 μM) | concentration of Aβ1-42 compared to controls (7W WT APP751 CHO cells [1]; 5 μM) | concentration of total β-amyloid compared to controls (7W WT APP751 CHO cells [1]; 5 μM) | concentration of Aβ1-40 compared to controls (7W WT APP751 CHO cells [1]; 30 μM) | concentration of Aβ1-42 compared to controls (7W WT APP751 CHO cells [1]; 30 μM) | concentration of total β-amyloid compared to controls (7W WT APP751 CHO cells [1]; 30 μM)

CCOC(=O)C1=C(C)NC(C)=C(C(=O)OCC)C1c1ccc(Cl)cc1 [BTB 14328, diethyl 4-(4-chlorophenyl)-2,6-dimethyl-1,4-dihydropyridine-3,5-dicarboxylate]
significantly decreased: concentration of Aβ1-40 compared to controls (7W WT APP751 CHO cells [2]) | concentration of Aβ1-42 compared to controls (7W WT APP751 CHO cells [2]) | concentration of total β-amyloid (Aβ1-40+Aβ1-42) compared to controls (7W WT APP751 CHO cells [2])

CCOC(=O)C1=C(C)NC(C)=C(C(=O)OCC)C1c1ccc(-c2cc(C(F)(F)F)cc(C(F)(F)F)c2)o1 [CD 04170, diethyl 4-{5-[3,5-di(trifluoromethyl)phenyl]-2-furyl}-2,6-dimethyl-1,4-dihydro-pyridine-3,5-dicarboxylate]
significantly decreased: concentration of Aβ1-40 compared to controls (7W WT APP751 CHO cells [2]) | concentration of Aβ1-42 compared to controls (7W WT APP751 CHO cells [2]) | concentration of total β-amyloid (Aβ1-40+Aβ1-42) compared to controls (7W WT APP751 CHO cells [2])

O=C1C=C(c2ccccc2)CN(C2CCCCC2)C1=O [HTS 01512, 1-cyclohexyl-5-phenyl-1,6-dihydro-2,3-pyridinedione]
significantly decreased: concentration of Aβ1-40 compared to controls (7W WT APP751 CHO cells [2]) | concentration of Aβ1-42 compared to controls (7W WT APP751 CHO cells [2]) | concentration of total β-amyloid (Aβ1-40+Aβ1-42) compared to controls (7W WT APP751 CHO cells [2])

N#Cc1c(-c2cn(-c3ccccc3)nc2-c2ccccc2)cc(-c2ccccc2)[nH]c1=O [HTS 07578, 4-(1,3-diphenyl-1H-pyrazol-4-yl)-2-oxo-6-phenyl-1,2-dihydro-3-pyridinecarbonitrile]
significantly decreased: concentration of Aβ1-40 compared to controls (7W WT APP751 CHO cells [2]) | concentration of Aβ1-42 compared to controls (7W WT APP751 CHO cells [2]) | concentration of total β-amyloid (Aβ1-40+Aβ1-42) compared to controls (7W WT APP751 CHO cells [2])

N#Cc1c(-c2cccs2)cc(-c2ccccc2)[nH]c1=O [HTS 10306, 2-oxo-6-phenyl-4-(2-thienyl)-1,2-dihydro-3-pyridinecarbonitrile]
significantly decreased: concentration of Aβ1-40 compared to controls (7W WT APP751 CHO cells [2]) | concentration of Aβ1-42 compared to controls (7W WT APP751 CHO cells [2]) | concentration of total β-amyloid (Aβ1-40+Aβ1-42) compared to controls (7W WT APP751 CHO cells [2])

NC(=O)Nc1sc(-c2ccc(F)cc2)cc1C(N)=O [IKK-2 Inhibitor IV]
significantly decreased: concentration of Aβ1-40 compared to controls (7W WT APP751 CHO cells [1]; 500 nM) | concentration of Aβ1-42 compared to controls (7W WT APP751 CHO cells [1]; 500 nM) | concentration of total β-amyloid compared to controls (7W WT APP751 CHO cells [1]; 500 nM) | concentration of Aβ1-40 compared to controls (7W WT APP751 CHO cells [1]; 5 μM) | concentration of Aβ1-42 compared to controls (7W WT APP751 CHO cells [1]; 5 μM) | concentration of total β-amyloid compared to controls (7W WT APP751 CHO cells [1]; 5 μM)

CCOC(=O)C1=C(C)NC(C)=C(C(=O)OCC)C1c1ccc(Br)cc1 [JFD 01209, diethyl 4-(4-bromophenyl)-2,6-dimethyl-1,4-dihydropyridine-3,5-dicarboxylate]
significantly decreased: concentration of Aβ1-40 compared to controls (7W WT APP751 CHO cells [2]) | concentration of Aβ1-42 compared to controls (7W WT APP751 CHO cells [2]) | concentration of total β-amyloid (Aβ1-40+Aβ1-42) compared to controls (7W WT APP751 CHO cells [2])

CCOC(=O)C1=C(C)NC(C)=C(C(=O)OCC)C1c1ccc([N+](=O)[O-])cc1 [JFD 03266, diethyl 2,6-dimethyl-4-(4-nitrophenyl)-1,4-dihydropyridine-3,5-dicarboxylate]
significantly decreased: concentration of Aβ1-40 compared to controls (7W WT APP751 CHO cells [2]) | concentration of total β-amyloid (Aβ1-40+Aβ1-42) compared to controls (7W WT APP751 CHO cells [2])

CCOC(=O)C1=C(C)NC(C)=C(C(=O)OCC)C1c1ccc(C)cc1 [JFD 03282, diethyl 2,6-dimethyl-4-(4-methylphenyl)-1,4-dihydropyridine-3,5-dicarboxylate]
significantly decreased: concentration of Aβ1-40 compared to controls (7W WT APP751 CHO cells [2]) | concentration of Aβ1-42 compared to controls (7W WT APP751 CHO cells [2]) | concentration of total β-amyloid (Aβ1-40+Aβ1-42) compared to controls (7W WT APP751 CHO cells [2])

CC1=C(C#N)C(c2ccc(Cl)c(Cl)c2)C(C#N)=C(C)N1 [JFD 03292, 4-(3,4-dichlorophenyl)-2,6-dimethyl-1,4-dihydropyridine-3,5-dicarbonitrile]
significantly decreased: concentration of Aβ1-40 compared to controls (7W WT APP751 CHO cells [2]) | concentration of total β-amyloid (Aβ1-40+Aβ1-42) compared to controls (7W WT APP751 CHO cells [2])

COC(=O)C1=C(C)NC(C)=C(C(=O)OC)C1c1ccc(Cl)c(Cl)c1 [JFD 03293, dimethyl 4-(3,4-dichlorophenyl)-2,6-dimethyl-1,4-dihydropyridine-3,5-dicarboxylate]
significantly decreased: concentration of Aβ1-40 compared to controls (7W WT APP751 CHO cells [2]) | concentration of Aβ1-42 compared to controls (7W WT APP751 CHO cells [2]) | concentration of total β-amyloid (Aβ1-40+Aβ1-42) compared to controls (7W WT APP751 CHO cells [2])

CCOC(=O)C1=C(C)NC(C)=C(C(=O)OCC)C1c1ccc(Cl)c(Cl)c1 [JFD 03294, diethyl 4-(3,4-dichlorophenyl)-2,6-dimethyl-1,4-dihydropyridine-3,5-dicarboxylate]
significantly decreased: concentration of Aβ1-40 compared to controls (7W WT APP751 CHO cells [2]) | concentration of Aβ1-42 compared to controls (7W WT APP751 CHO cells [2]) | concentration of total β-amyloid (Aβ1-40+Aβ1-42) compared to controls (7W WT APP751 CHO cells [2])

CCOC(=O)C1=C(C)NC(C)=C(C(=O)OCC)C1c1ccccc1Cl [JFD 03305, diethyl 4-(2-chlorophenyl)-2,6-dimethyl-1,4-dihydropyridine-3,5-dicarboxylate]
significantly decreased: concentration of Aβ1-40 compared to controls (7W WT APP751 CHO cells [2]) | concentration of Aβ1-42 compared to controls (7W WT APP751 CHO cells [2]) | concentration of total β-amyloid (Aβ1-40+Aβ1-42) compared to controls (7W WT APP751 CHO cells [2])

COC(=O)C1=C(C)NC(C)=C(C(=O)OCCCN2CCC(c3ccccc3)(c3ccccc3)CC2)[C@@H]1c1cccc([N+](=O)[O-])c1.Cl [R-niguldipine]
significantly decreased: concentration of Aβ1-40 compared to controls (7W WT APP751 CHO cells [1]; 1 μM) | concentration of Aβ1-42 compared to controls (7W WT APP751 CHO cells [1]; 1 μM) | concentration of total β-amyloid compared to controls (7W WT APP751 CHO cells [1]; 1 μM) | concentration of Aβ1-40 compared to controls (7W WT APP751 CHO cells [1]; 5 μM) | concentration of Aβ1-42 compared to controls (7W WT APP751 CHO cells [1]; 5 μM) | concentration of total β-amyloid compared to controls (7W WT APP751 CHO cells [1]; 5 μM) | concentration of Aβ1-40 compared to controls (7W WT APP751 CHO cells [1]; 30 μM) | concentration of Aβ1-42 compared to controls (7W WT APP751 CHO cells [1]; 30 μM) | concentration of total β-amyloid compared to controls (7W WT APP751 CHO cells [1]; 30 μM)

C[C@@H]1CC[C@H]2[C@@H](C)C(=O)O[C@@H]3O[C@@]4(C)CC[C@@H]1[C@]32OO4 [artemisinin]
significantly decreased: concentration of Aβ1-40 compared to controls (7W WT APP751 CHO cells [1]; 1 μM) | concentration of Aβ1-42 compared to controls (7W WT APP751 CHO cells [1]; 1 μM) | concentration of total β-amyloid compared to controls (7W WT APP751 CHO cells [1]; 1 μM) | concentration of Aβ1-40 compared to controls (7W WT APP751 CHO cells [1]; 30 μM) | concentration of Aβ1-42 compared to controls (7W WT APP751 CHO cells [1]; 30 μM) | concentration of total β-amyloid compared to controls (7W WT APP751 CHO cells [1]; 30 μM)

CC1=C(O)C(=O)C=C2C1=CC=C1[C@@]2(C)CC[C@@]2(C)[C@@H]3C[C@](C)(C(=O)O)CC[C@]3(C)CC[C@]12C [celastrol]
significantly decreased: concentration of Aβ1-40 compared to controls (7W WT APP751 CHO cells [1]; 500 nM) | concentration of Aβ1-42 compared to controls (7W WT APP751 CHO cells [1]; 500 nM) | concentration of total β-amyloid compared to controls (7W WT APP751 CHO cells [1]; 500 nM) | concentration of Aβ1-40 compared to controls (7W WT APP751 CHO cells [1]; 5 μM) | concentration of Aβ1-42 compared to controls (7W WT APP751 CHO cells [1]; 5 μM) | concentration of total β-amyloid compared to controls (7W WT APP751 CHO cells [1]; 5 μM)

C=C1C(=O)O[C@@H]2C[C@@]3(C)CCCC(=C)[C@@H]3C[C@H]12 [isohelenin]
significantly decreased: concentration of Aβ1-40 compared to controls (7W WT APP751 CHO cells [1]; 5 μM) | concentration of Aβ1-42 compared to controls (7W WT APP751 CHO cells [1]; 5 μM) | concentration of total β-amyloid compared to controls (7W WT APP751 CHO cells [1]; 5 μM) | concentration of Aβ1-40 compared to controls (7W WT APP751 CHO cells [1]; 10 μM) | concentration of Aβ1-42 compared to controls (7W WT APP751 CHO cells [1]; 10 μM) | concentration of total β-amyloid compared to controls (7W WT APP751 CHO cells [1]; 10 μM)

C=C1C(=O)[C@@]23[C@H](O)C[C@@H]4C(C)(C)CC[C@H](O)[C@@]4(CO)[C@@H]2CC[C@@H]1[C@H]3O [kamebakaurin]
significantly decreased: concentration of Aβ1-40 compared to controls (7W WT APP751 CHO cells [1]; 10 μM) | concentration of Aβ1-42 compared to controls (7W WT APP751 CHO cells [1]; 10 μM) | concentration of total β-amyloid compared to controls (7W WT APP751 CHO cells [1]; 10 μM) | concentration of Aβ1-40 compared to controls (7W WT APP751 CHO cells [1]; 30 μM) | concentration of Aβ1-42 compared to controls (7W WT APP751 CHO cells [1]; 30 μM) | concentration of total β-amyloid compared to controls (7W WT APP751 CHO cells [1]; 30 μM)
